# Reference: the SangsterLogP compilation
# Experiment: method code SF-AS, from DOI: 10.1002/zfch.19810211114
row,logP,SMILES
1,0.46,CCCCCCNC(=O)NN
2,-1.1,CCCNC(=O)NN
3,-1.62,CCNC(=O)NN
4,-1.55,C=CCNC(=O)NN
5,-0.04,CCCCCNC(=O)NN
6,-0.81,CC(C)(C)NC(=O)NN
7,-0.62,CCN(CC)C(=O)NN
8,-0.6,CCCCNC(=O)NN
9,-0.22,NNC(=O)NCc1ccccc1
10,0.15,NNC(=O)NC1CCCCC1
11,-1.57,CN(C)C(=O)NN
12,-2.2,CNC(=O)NN
13,-1.3,CC(C)NC(=O)NN
14,-0.84,CC(C)CNC(=O)NN

row,SMILES,logP
1,NNC(N)=O,-2.75
